Results on 34 molecules are retold here after a melting point compilation (Tetko et al.; mined from patent text by program, amines drawn as free bases though some values may be those of a salt).

Structures are written as SMILES.

One may read the melting point as the temperature, or range, at which the solid turns liquid.

In the case of `O=C(O)c1cc(C(=O)O)c2c(Cl)cc(Cl)cc2n1`, the melting point is 246 °C.
Molecule `CCn1ncc2c(NCC3CCCCC3)c3cc(NC(C)=O)ccc3nc21` displayed a melting point of 277 to 278 °C.
`CCCc1nc(-n2cccc2C(=O)C(F)(F)F)c(C#N)[nH]1` yielded a melting point of 104 to 105 °C.
The molecule `CC(C)(O)C#Cc1ccccc1` came in with a melting point of 52 to 53 °C.
With `CN1CCN(c2cccc3c2C[C@H](NC(=O)c2ccc(N4CCN(CCO)CC4)cc2)CO3)CC1` the figure was 211 to 212 °C; with `CCOC(=O)CCCCOc1cccc(O)c1C=O`, 32 to 33 °C.
`Cc1noc(NS(=O)(=O)c2ccccc2-c2ccc(-c3ncco3)cc2CN(Cc2ccccc2)CC(F)(F)F)c1C` showed a melting point of 50 to 60 °C.
With `CCN(CC)CCn1nnnc1-c1ccc2oc3ncccc3c(=O)c2c1` the figure was 126 to 128 °C; with `O=C(O)C(=O)c1ccc(OCCOc2ccc3ccccc3c2)cc1F`, 155 to 156 °C.
With `Nc1cccc(-c2cnc(N)nc2)c1`, the melting point lay within 171 to 172 °C.
Turning to `O=C(NNc1ccccc1)NC1(N=NC2(NC(=O)NNc3ccccc3)CCCCC2)CCCCC1`, the melting point was in the range of 148 to 151 °C.
`O=C(Nc1cccnc1)N1N=CCC1c1ccccc1` (centres undefined) yielded a melting point of 104 to 106 °C.
`COc1ccc2cc3ccccc3cc2c1` gave a melting point of 182 to 184 °C.
Turning to `C#CC1(O)CCC2(C)C(CCC3C2CCC2(C)C(C(C)=O)CCC32)C1` (centres undefined), the melting point was 196 to 197 °C.
The molecule `N#CCCn1nc(-c2ccccc2)c(-c2ccccc2)c(C#N)c1=O` showed a melting point of 160 to 161 °C.
`C=C1C(O)C(CO)OC1n1cc(Cl)c(N)nc1=O` (centres undefined) registered a melting point of 168 to 170 °C.
Molecule `CCCCCn1nc(-c2cccc(C(F)(F)F)c2F)c(=O)c2cccc(OC)c21` displayed a melting point of 82 to 84 °C.
`COC(=O)c1cnc(C(=O)OC)c([N+](=O)[O-])c1` returned a melting point of 82 to 86 °C.
As to `CCCCCCCCCCCCCCOc1ccc(C(=O)N(Cc2ccccn2)C(C)=O)cc1`, the melting point lay in the range of 68 to 70 °C.
`CCCN(C)S(=O)(=O)c1cccc(-c2cc(-c3nc(-c4ccc(C(F)(F)F)cc4)cc(C(F)(F)F)n3)ccn2)c1`: the melting point amounted to 144 °C.
As for `COc1ccc(C[C@@H](CO)NC(=O)c2ccnc(-n3nc(-c4cccnc4)c4ccccc4c3=O)c2)cc1OC`, the melting point lay within 135 to 137 °C.
In the case of `COc1ccc(S(=O)(=O)Nc2c(Cl)cncc2Cl)c2c1oc1ccccc12` it was 242 to 244 °C; in that of `CSc1cccc(NCC2CN(C(=O)Oc3ccccc3)CCO2)c1` (centres undefined), 114 to 115 °C; in that of `CC=Cn1c2ccccc2c2ccccc21`, 57 to 58 °C.
Molecule `OCCc1ccc(-c2ccccc2)s1` had a melting point of 74 °C.
`CC(C)n1nc(-c2sc(C(=O)NCCc3ccccn3)nc2-c2ccccc2)ccc1=O` showed a melting point of 144 to 147 °C.
As to `CCCc1ccc(C(=O)O)cc1[N+](=O)[O-]`, the melting point fell in the range of 106 to 109 °C.
In turn, `Cc1ccc(-c2ccccc2C(=O)Nc2ccc(C(=O)N3CCC(=O)N(CC(=O)N4CCN(C)CC4)c4ccccc43)cc2)cc1` registered a melting point of 161 to 163 °C.
In the case of `CCOc1cc(OCCCc2cn(-c3ccc(C(F)(F)F)cn3)nc2OC(C)C)ccc1CCC(=O)O` it was 128 to 129 °C.
For `CCOC(=O)C(CCCN(C)CCc1ccc(OC)c(OC)c1)(C(=O)OCC)c1ccc(OC)c(OC)c1`, the melting point was in the range of 101 to 104 °C.
With `Cc1[nH]cc2c(=O)n(-c3ccc(Cl)cc3)nc-2c1-c1cccc(C(=O)N2CCN(C)CC2)c1` the figure was 318 to 322 °C.
Regarding `CCCCC(=O)NC(=O)C(c1ccccc1)c1ccccc1`, the melting point stood at 83 °C.
The molecule `COC(=O)C(Oc1cc(OCc2ccsc2)ccc1C#N)c1ccccc1C` (racemic) displayed a melting point of 102 to 104 °C.
In the case of `C=Cc1cccc2c(Nc3ccc(O)cc3C)c(C(=O)CCC)cnc12`, the melting point lay in the range of 150 to 152 °C.
